According to patent US12648983B2 (U.S. NUTRACEUTICALS, INC., priority 2021, dated 2026):

What was measured:
[1] = test system: androgenic alopecia; conditions: 1 milligram per day, 24 months, 100 men; cited from earlier work
[2] = biological target: T1, 5α-Reductase Type 2 (Homo sapiens, UniProt P31213); test: inhibition of 5α-Reductase Type 2 enzyme (Inhibition Experiments 1 and 2); type: biochemical
T1 sequence (P31213 1-254): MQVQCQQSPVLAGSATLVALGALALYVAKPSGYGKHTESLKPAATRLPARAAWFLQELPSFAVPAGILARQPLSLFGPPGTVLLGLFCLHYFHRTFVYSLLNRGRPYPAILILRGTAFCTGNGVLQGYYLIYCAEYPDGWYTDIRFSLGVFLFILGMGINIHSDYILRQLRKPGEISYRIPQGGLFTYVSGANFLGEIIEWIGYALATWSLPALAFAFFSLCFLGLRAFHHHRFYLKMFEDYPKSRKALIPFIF
Text: (§1) The different free fatty acids of medium and long saturated chains and long unsaturated chains are shown, together with esterified fatty acids, oxidized fatty acids, fatty alcohols, phytosterols, and other components. The magnitude of the activity is designated by “none,” “moderate” or “very active” (FIG. 3). The various constituents shown in the table of FIG. 2 are also shown and listed as free fatty acid molecules with: a) medium, saturated chains, b) long, saturated chains, and c) long unsaturated chains. There are esterified fatty acids, oxidized fatty acids, and fatty alcohols. These tables support other evidence that the five active free fatty acids for prostate and hair health are lauric, myristic, oleic, linoleic and linolenic free fatty acids.
Data are shown in the graphs and bar charts of FIGS. 5 and 6 where data are reported as the effectiveness to inhibit enzyme activity (IC50). […]
Inhibition Experiment 2 shown in FIG. 6 determined the possible impact of Permixon® product matrix (PEG) on an in vitro assay and the pegylated and conventional ultra-high purity supercritical CO2 extract having the PEG matrix (U4602-PEG) was compared to the commercially available Permixon® and the conventional unpegylated product (U4602) for their ability to inhibit the 5α-Reductase 2 enzyme. […]

[3] = biological target: T2, 5α-Reductase Type 1 (Homo sapiens, UniProt P18405); test: inhibition of 5α-Reductase Type 1 enzyme; type: biochemical
T2 sequence (P18405 1-259): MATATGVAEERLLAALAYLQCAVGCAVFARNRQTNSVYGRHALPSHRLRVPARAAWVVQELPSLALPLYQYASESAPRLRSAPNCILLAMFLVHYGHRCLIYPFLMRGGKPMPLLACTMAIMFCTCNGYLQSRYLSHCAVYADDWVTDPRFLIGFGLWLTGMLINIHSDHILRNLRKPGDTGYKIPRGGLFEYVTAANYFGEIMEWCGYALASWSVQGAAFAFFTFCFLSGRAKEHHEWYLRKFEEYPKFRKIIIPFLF
Text: as §1
Reference is now made to FIGS. 7B and 7C showing the use of a supercritical CO2 extracted LSESr and Permixon®.

[4] = test system: hair growth; conditions: normal shaved mice, after about 20 days; cited from earlier work

For `CC(C)(C)NC(=O)[C@H]1CC[C@H]2[C@@H]3CC[C@H]4NC(=O)C=C[C@]4(C)[C@H]3CC[C@]12C` [finasteride], which “men who noted an improvement” value [1] is on record?
Its value is 68%.

What does the source list for `CCCCCCCC/C=C\CCCCCCCC(=O)O` [oleic acid]?
effectiveness for 5α-Reductase-2 (in words) [2]: not as much; effectiveness for 5α-Reductase-1 (in words) [3]: especially effective

Which hair growth [4] does the source give for `CCCCC/C=C\C/C=C\CCCCCCCC(=O)O` [linoleic acid] here?
The hair growth was “about 100%”.

And the “effectiveness for 5α-Reductase-2 (in words)” value [2]?
Its value is “beneficial for both”.
